{"source": "patent US20070053923A1", "about": "“Dna vaccine composition with enhanced immunogenicity” (priority 2003, published 2007)", "origin": "cited, not measured here", "test_system": "immune cells", "details": "via FPR and FPRL1, as reported"}
{"substance": "WKYMVM-NH2", "values": [{"measurement": "Activation of immune cells", "result": "potent activator of immune cells"}]}
